Each structure is given as a SMILES string.

The target in this assay is T1, human ACC2 (Homo sapiens, UniProt O00763).
T1 construct: made in house; host or cells: insect cells (baculoviral expression system)
T1 sequence (O00763 129-2458 limits assumed): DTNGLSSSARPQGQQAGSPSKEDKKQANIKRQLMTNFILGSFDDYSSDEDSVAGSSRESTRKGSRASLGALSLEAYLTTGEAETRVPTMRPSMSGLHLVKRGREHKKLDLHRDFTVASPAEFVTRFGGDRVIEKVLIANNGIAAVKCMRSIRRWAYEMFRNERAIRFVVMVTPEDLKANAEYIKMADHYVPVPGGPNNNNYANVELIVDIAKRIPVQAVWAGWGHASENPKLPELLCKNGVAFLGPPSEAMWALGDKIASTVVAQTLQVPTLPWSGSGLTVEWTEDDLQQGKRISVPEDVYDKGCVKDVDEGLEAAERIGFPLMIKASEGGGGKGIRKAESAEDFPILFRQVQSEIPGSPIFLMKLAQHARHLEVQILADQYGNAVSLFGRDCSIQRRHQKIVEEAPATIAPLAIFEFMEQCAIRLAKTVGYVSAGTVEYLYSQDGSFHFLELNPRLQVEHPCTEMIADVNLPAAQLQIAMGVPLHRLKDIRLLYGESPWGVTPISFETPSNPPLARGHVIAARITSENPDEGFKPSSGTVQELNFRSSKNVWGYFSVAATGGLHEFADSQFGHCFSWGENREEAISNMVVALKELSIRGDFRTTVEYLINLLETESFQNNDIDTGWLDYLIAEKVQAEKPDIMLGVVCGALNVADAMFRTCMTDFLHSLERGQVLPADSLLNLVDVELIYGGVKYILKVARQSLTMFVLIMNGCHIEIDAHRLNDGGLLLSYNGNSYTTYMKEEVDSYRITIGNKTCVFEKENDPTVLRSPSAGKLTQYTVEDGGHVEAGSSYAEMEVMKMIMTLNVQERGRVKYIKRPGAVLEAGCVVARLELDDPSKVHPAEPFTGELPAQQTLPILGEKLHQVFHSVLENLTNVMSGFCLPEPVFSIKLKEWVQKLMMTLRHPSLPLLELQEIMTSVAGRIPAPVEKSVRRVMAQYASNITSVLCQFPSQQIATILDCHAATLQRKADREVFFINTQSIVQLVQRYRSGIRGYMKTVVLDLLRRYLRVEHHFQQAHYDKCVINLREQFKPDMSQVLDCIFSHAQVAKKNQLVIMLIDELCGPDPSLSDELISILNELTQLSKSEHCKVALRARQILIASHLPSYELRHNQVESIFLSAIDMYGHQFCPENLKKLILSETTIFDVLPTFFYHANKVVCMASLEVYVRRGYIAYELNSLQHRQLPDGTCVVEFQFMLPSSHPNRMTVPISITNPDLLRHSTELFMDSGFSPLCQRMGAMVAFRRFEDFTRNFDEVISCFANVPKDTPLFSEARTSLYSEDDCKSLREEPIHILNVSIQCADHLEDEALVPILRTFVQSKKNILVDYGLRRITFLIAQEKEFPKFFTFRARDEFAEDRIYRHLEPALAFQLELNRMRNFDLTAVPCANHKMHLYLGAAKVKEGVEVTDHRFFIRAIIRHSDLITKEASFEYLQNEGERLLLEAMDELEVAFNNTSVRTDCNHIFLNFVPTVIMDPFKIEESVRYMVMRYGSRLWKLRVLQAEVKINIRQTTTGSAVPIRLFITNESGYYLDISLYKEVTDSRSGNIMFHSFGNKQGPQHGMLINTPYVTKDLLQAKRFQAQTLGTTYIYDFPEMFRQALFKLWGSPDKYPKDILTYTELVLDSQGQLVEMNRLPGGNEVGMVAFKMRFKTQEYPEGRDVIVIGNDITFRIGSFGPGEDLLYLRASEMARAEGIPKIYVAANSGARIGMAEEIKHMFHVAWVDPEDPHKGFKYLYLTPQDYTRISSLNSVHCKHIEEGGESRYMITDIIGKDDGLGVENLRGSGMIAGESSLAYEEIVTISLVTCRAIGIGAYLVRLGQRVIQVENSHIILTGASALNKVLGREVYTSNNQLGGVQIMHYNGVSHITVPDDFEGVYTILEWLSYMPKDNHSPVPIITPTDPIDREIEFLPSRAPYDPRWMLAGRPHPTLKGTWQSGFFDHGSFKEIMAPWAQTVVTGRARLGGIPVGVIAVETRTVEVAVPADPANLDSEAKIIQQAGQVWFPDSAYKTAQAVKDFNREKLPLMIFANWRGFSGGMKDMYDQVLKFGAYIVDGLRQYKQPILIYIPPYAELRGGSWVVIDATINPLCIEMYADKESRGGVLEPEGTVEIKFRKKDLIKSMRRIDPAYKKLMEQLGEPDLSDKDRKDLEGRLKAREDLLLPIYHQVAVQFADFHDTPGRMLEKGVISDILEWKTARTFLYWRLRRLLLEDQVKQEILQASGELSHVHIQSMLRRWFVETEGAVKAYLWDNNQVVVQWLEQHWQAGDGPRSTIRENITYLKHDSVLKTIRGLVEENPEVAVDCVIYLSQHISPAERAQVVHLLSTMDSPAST
The assay is described as follows: ACC2 assay, spectrophotometric 384 well assay (NADH-linked, coupled lactate dehydrogenase/pyruvate kinase). Format: biochemical. The following applies: ACC2 assay, hACC2 construct lacking 128 N-terminal amino acids, 25° C., 340 nm; read-out: IC50. Summed up:
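Human ACC2 lacking N-terminal 128 aa, baculovirus/insect-cell expressed, anion-exchange purified; 100 mM Tris pH 7.5, 10 mM citrate, 25 mM KHCO3, 1% DMSO. Started with 200 μM NADH and acetyl-CoA plus 500 μM ATP; PK/LDH-coupled A340 decrease read 15 min at 25° C. IC50 by nonlinear fit of low-control-subtracted slopes.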
Broadly, the IC50 is the concentration at which inhibition is half-maximal. For `CC(=O)N[C@@H](C)c1ccc(C2CCN(c3cc(OCCC(C)(C)C)ncn3)CC2)cc1` [Example 11.12], the IC50 came to 300 nM. Then `CC(=O)N[C@@H](C)c1ccc(C2CCN(c3ccnc(OCCc4ccccc4)n3)CC2)cc1` [Example 11.13], with 4600 nM; and `CC(=O)N[C@@H](C)c1ccc(C2CCN(c3cc(OCCc4ccccc4)ncn3)CC2)cc1` [Example 11.14], with 3500 nM. `CC(=O)N[C@@H](C)c1ccc(C2CCN(c3cc(OCC(C)C)ncn3)CC2)cc1` [Example 11.15]: the IC50 amounted to 230 nM.

As for `CC(=O)N[C@@H](C)c1ccc(C2CCN(c3ccnc(OCC(C)C)n3)CC2)cc1` [Example 11.16], the IC50 stood at 430 nM. Turning to `CC(=O)N[C@@H](C)c1ccc(C2CCN(c3cc(O[C@H]4CCOC4)ncn3)CC2)cc1` [Example 11.17], the 50% inhibitory concentration (IC50) was 1200 nM. The figure for `CC(=O)N[C@@H](C)c1ccc(C2CCN(c3ccnc(O[C@H]4CCOC4)n3)CC2)cc1` [Example 11.18] is 6200 nM; for `CC#CCOc1cc(N2CCC(c3ccc([C@H](C)NC(C)=O)cc3)CC2)ncn1` [Example 11.19] it is 880 nM; for `CC#CCOc1nccc(N2CCC(c3ccc([C@H](C)NC(C)=O)cc3)CC2)n1` [Example 11.20] it is 1300 nM. The figure for `CCC(CC)Oc1nccc(N2CCC(c3ccc([C@H](C)NC(C)=O)cc3)CC2)n1` [Example 11.21] is 890 nM.

Regarding `CCC(CC)Oc1cc(N2CCC(c3ccc([C@H](C)NC(C)=O)cc3)CC2)ncn1` [Example 11.22], the half-inhibitory concentration (IC50) was 820 nM. The figure for `CC(=O)N[C@@H](C)c1ccc(C2CCN(c3ccnc(OCc4ccccc4)n3)CC2)cc1` [Example 11.23] is 1500 nM; for `CC(=O)N[C@@H](C)c1ccc(C2CCN(c3cc(OCc4ccccc4)ncn3)CC2)cc1` [Example 11.24] it is 370 nM. Then `CC(=O)N[C@@H](C)c1ccc(C2CCN(c3cc(Oc4ccccc4F)ncn3)CC2)cc1` [Example 11.25], with 240 nM; and `CC(=O)N[C@@H](C)c1ccc(C2CCN(c3ccnc(Oc4ccccc4F)n3)CC2)cc1` [Example 11.26], with 380 nM; and `CC(=O)N[C@@H](C)c1ccc(C2CCN(c3cc(Oc4cccc(F)c4)ncn3)CC2)cc1` [Example 11.27], with 300 nM. Then `CC(=O)N[C@@H](C)c1ccc(C2CCN(c3ccnc(Oc4cccc(F)c4)n3)CC2)cc1` [Example 11.28], with 350 nM; and `COCCOc1cc(N2CCC(c3ccc([C@H](C)NC(C)=O)cc3)CC2)ncn1` [Example 11.29], with 3800 nM.

For `COCCOc1nccc(N2CCC(c3ccc([C@H](C)NC(C)=O)cc3)CC2)n1` [Example 11.30], the IC50 is 8400 nM.

As for `COc1cccc(Oc2cc(N3CCC(c4ccc([C@H](C)NC(C)=O)cc4)CC3)ncn2)c1` [Example 11.31], the half-maximal inhibitory concentration (IC50) came out at 690 nM. Then `COc1cccc(Oc2nccc(N3CCC(c4ccc([C@H](C)NC(C)=O)cc4)CC3)n2)c1` [Example 11.32], with 1100 nM. The figure for `CC(=O)N[C@@H](C)c1ccc(C2CCN(c3cc(OCc4cccnc4)ncn3)CC2)cc1` [Example 11.33] is 590 nM; for `CC(=O)N[C@@H](C)c1ccc(C2CCN(c3ccnc(OCc4cccnc4)n3)CC2)cc1` [Example 11.34] it is 23200 nM. The figure for `CC(=O)N[C@@H](C)c1ccc(C2CCN(c3cc(OCC4(C#N)CC4)ncn3)CC2)cc1` [Example 11.35] is 710 nM. With `CCOc1cc(N2CCC(c3ccc([C@H](C)NC(C)=O)cc3)CC2)ncn1` [Example 11.36], the IC50 stood at 580 nM. Then `CCOc1nccc(N2CCC(c3ccc([C@H](C)NC(C)=O)cc3)CC2)n1` [Example 11.37], with 930 nM. Then `CC(=O)N[C@@H](C)c1ccc(C2CCN(c3ccnc(OC(C)C)n3)CC2)cc1` [Example 11.38], with 560 nM. The figure for `CC(=O)N[C@@H](C)c1ccc(C2CCN(c3ccnc(NC(C)c4ccccc4)n3)CC2)cc1` (some centres unmarked) [Example 11.39] is 6600 nM; for `CC(=O)N[C@@H](C)c1ccc(C2CCN(c3cc(NC(C)c4ccccc4)ncn3)CC2)cc1` (some centres unmarked) [Example 11.40] it is 8100 nM; for `CCCNc1nccc(N2CCC(c3ccc([C@H](C)NC(C)=O)cc3)CC2)n1` [Example 11.41] it is 3100 nM.

`CCCNc1cc(N2CCC(c3ccc([C@H](C)NC(C)=O)cc3)CC2)ncn1` [Example 11.42]: the IC50 stood at 7100 nM.

As for `CC(=O)N[C@@H](C)c1ccc(C2CCN(c3ccnc(NC(C)C)n3)CC2)cc1` [Example 11.43], the IC50 was found to be 3300 nM. Then `CC(=O)N[C@@H](C)c1ccc(C2CCN(c3cc(NC(C)C)ncn3)CC2)cc1` [Example 11.44], with 5000 nM; and `CC(=O)N[C@@H](C)c1ccc(C2CCN(c3ccnc(NC4CCC4)n3)CC2)cc1` [Example 11.45], with 1500 nM; and `CC(=O)N[C@@H](C)c1ccc(C2CCN(c3cc(NC4CCC4)ncn3)CC2)cc1` [Example 11.46], with 2800 nM.

Regarding `CC(=O)N[C@@H](C)c1ccc(C2CCN(c3ccnc(N(C)C(C)C)n3)CC2)cc1` [Example 11.47], the 50% inhibitory concentration (IC50) is 540 nM. Consider `CC(=O)N[C@@H](C)c1ccc(C2CCN(c3cc(N(C)C(C)C)ncn3)CC2)cc1` [Example 11.48], for which the half-maximal inhibitory concentration (IC50) was 580 nM. Consider `CC(=O)N[C@@H](C)c1ccc(C2CCN(c3ccnc(N4CCc5ccccc54)n3)CC2)cc1` [Example 11.49], for which the IC50 was determined as 350 nM. Regarding `CCNc1nccc(N2CCC(c3ccc([C@H](C)NC(C)=O)cc3)CC2)n1` [Example 11.50], the IC50 was 4200 nM. Then `CCNc1cc(N2CCC(c3ccc([C@H](C)NC(C)=O)cc3)CC2)ncn1` [Example 11.51], with 7800 nM; and `CC(=O)N[C@@H](C)c1ccc(C2CCN(c3cc(-n4ccc(=N)cc4)ncn3)CC2)cc1` [Example 11.52], with 18500 nM; and `COc1ccc(Nc2cc(N3CCC(c4ccc([C@H](C)NC(C)=O)cc4)CC3)ncn2)cc1` [Example 11.53], with 6000 nM. Then `COc1ccc(Nc2nccc(N3CCC(c4ccc([C@H](C)NC(C)=O)cc4)CC3)n2)cc1` [Example 11.54], with 3700 nM. The figure for `CC(=O)N[C@@H](C)c1ccc(C2CCN(c3cc(NCc4ccccc4)ncn3)CC2)cc1` [Example 11.55] is 3700 nM; for `CC(=O)N[C@@H](C)c1ccc(C2CCN(c3ccnc(NCc4ccccc4)n3)CC2)cc1` [Example 11.56] it is 2300 nM.

Take `CC(=O)N[C@@H](C)c1ccc(C2CCN(c3cc(N4CCCCC4)ncn3)CC2)cc1` [Example 11.57]: the IC50 was found to be 420 nM.

For the compound `CC(=O)N[C@@H](C)c1ccc(C2CCN(c3ccnc(N4CCCCC4)n3)CC2)cc1` [Example 11.58], the IC50 amounted to 260 nM. Then `CC(=O)N[C@@H](C)c1ccc(C2CCN(c3cc(NCc4ccco4)ncn3)CC2)cc1` [Example 11.59], with 6100 nM; and `CC(=O)N[C@@H](C)c1ccc(C2CCN(c3ccnc(NCc4ccco4)n3)CC2)cc1` [Example 11.60], with 5300 nM; and `CC(=O)N[C@@H](C)c1ccc(C2CCN(c3ccnc(NC4CCCC4)n3)CC2)cc1` [Example 11.61], with 1300 nM. The figure for `CCCCNc1cc(N2CCC(c3ccc([C@H](C)NC(C)=O)cc3)CC2)ncn1` [Example 11.62] is 3300 nM.

`CCCCNc1nccc(N2CCC(c3ccc([C@H](C)NC(C)=O)cc3)CC2)n1` [Example 11.63]: the IC50 amounted to 2000 nM.

As to `COCCNc1nccc(N2CCC(c3ccc([C@H](C)NC(C)=O)cc3)CC2)n1` [Example 11.64], the concentration for half-maximal inhibition (IC50) worked out at 17900 nM.

As for `CC(=O)N[C@@H](C)c1ccc(C2CCN(c3cc(NCC(C)C)ncn3)CC2)cc1` [Example 11.65], the IC50 came to 4700 nM. The figure for `CC(=O)N[C@@H](C)c1ccc(C2CCN(c3ccnc(NCC(C)C)n3)CC2)cc1` [Example 11.66] is 2200 nM. The figure for `CC(=O)N[C@@H](C)c1ccc(C2CCN(c3cc(NCc4ccccn4)ncn3)CC2)cc1` [Example 11.67] is 26400 nM; for `CCCN(C)c1cc(N2CCC(c3ccc([C@H](C)NC(C)=O)cc3)CC2)ncn1` [Example 11.68] it is 610 nM; for `CCCN(C)c1nccc(N2CCC(c3ccc([C@H](C)NC(C)=O)cc3)CC2)n1` [Example 11.69] it is 200 nM. Then `CC(=O)N[C@@H](C)c1ccc(C2CCN(c3cc(NCCC(C)C)ncn3)CC2)cc1` [Example 11.70], with 4500 nM; and `CC(=O)N[C@@H](C)c1ccc(C2CCN(c3ccnc(NCCC(C)C)n3)CC2)cc1` [Example 11.71], with 2300 nM; and `CC(=O)N[C@@H](C)c1ccc(C2CCN(c3cc(NCCc4ccccc4)ncn3)CC2)cc1` [Example 11.72], with 10500 nM. Consider `CC(=O)N[C@@H](C)c1ccc(C2CCN(c3ccnc(NC4CCOCC4)n3)CC2)cc1` [Example 11.73], for which the 50% inhibitory concentration (IC50) is 15600 nM.

With `CC(=O)N[C@@H](C)c1ccc(C2CCN(c3cc(NC4CCOCC4)ncn3)CC2)cc1` [Example 11.74], the IC50 came to 8300 nM.

For `CC(=O)N[C@@H](C)c1ccc(C2CCN(c3ccnc(N[C@H](C)C(C)C)n3)CC2)cc1` [Example 11.75], the 50% inhibitory concentration (IC50) was 3800 nM.

Consider `CC(=O)N[C@@H](C)c1ccc(C2CCN(c3cc(N[C@H](C)C(C)C)ncn3)CC2)cc1` [Example 11.76], for which the half-maximal inhibitory concentration (IC50) was 6000 nM.

Consider `CC(=O)N[C@@H](C)c1ccc(C2CCN(c3cc(N4CC5CCCC5C4)ncn3)CC2)cc1` (some centres unmarked) [Example 11.77], for which the concentration for half-maximal inhibition (IC50) came out at 280 nM. The figure for `CC(=O)N[C@@H](C)c1ccc(C2CCN(c3ccnc(N4CC5CCCC5C4)n3)CC2)cc1` (some centres unmarked) [Example 11.78] is 610 nM; for `COC1CN(c2cc(N3CCC(c4ccc([C@H](C)NC(C)=O)cc4)CC3)ncn2)C1` [Example 11.79] it is 4000 nM.

Values taken from patent US9006450B2 (Boehringer Ingelheim International GmbH, priority 2010, dated 2015).
